Publication PMC11434868, “Synthesis and Antiproliferative Effect of 3,4,5-Trimethoxylated Chalcones on Colorectal and Prostatic Cancer Cells” (Pharmaceuticals, 2024)

Experiments:
[1] = test system: PC3; experiment: MTT assay, antiproliferative effect on PC3; assay type: cell-based; details: Homo sapiens
Protocol: (§1) Human CRC (HCT116 and HT-29) and PCa (DU145 and PC3) cell lines were purchased from the American Type Culture Collection (ATCC—LGC Standards, Molsheim, France). All cells were grown in RPMI 1640 medium supplemented with 10% FBS, 1% L-glutamine, 100 U/mL penicillin, and 100 μg/mL streptomycin. Cultures were maintained in a humidified atmosphere containing 5% CO2 at 37 °C. Cells were seeded in 75 cm^2 culture flasks at 1.2 × 10^4 cells/cm^2 for HCT116, DU145, and PC3 cells, and 2.0 × 10^4 for HT-29 cells. Cells were grown for 24 h in culture medium prior to exposure or not to obtain the synthesized compounds. Stock solutions (10^−2 M in DMSO) of each compound were diluted in culture medium to obtain appropriate final concentrations.
(§2) • (a) MTT assay: The antiproliferative effect of all compounds was determined using MTT assay (a metabolic activity test). Briefly, cells were seeded in 96-well culture plates at 4 × 10^3 cells/well for HCT116, PC3, and DU145 cells and 6 × 10^3 cells/well for HT-29 cells (100 µL/well), and grown for 24 h in culture medium prior to exposure or not to obtain compounds 1–15 with concentrations ranging from 5 nM to 50 μM. After 24 and 48 h of treatment, MTT (5 mg/mL in PBS) was added and incubated for another 3 h. MTT was then removed from the wells before adding 100 μL/well of DMSO. The optical density was detected with a microplate reader (Multiskan FC, Thermoscientific, Bordeaux, France) at 550 nm and cell viability was expressed as a percentage of each treatment condition compared to control cells. IC50 values were calculated for all compounds from the dose–response curve. Data are expressed as the arithmetic means ± standard error of the mean (SEM) of separate experiments. All experiments were performed at least in triplicate. • (b) Trypan blue dye exclusion method: Cells were grown for 24 h then treated with compounds 10 and 13 at indicated concentrations. After 48 h of treatment, cells were trypsinized and resuspended in complete medium. Each sample was mixed with Trypan blue solution (0.14% in HBSS, Invitrogen-GIBCO, ThermoFisher, Illkirch, France). Colored (non-viable) and dye-excluding (viable) cells were counted with the LUNA-II automated cell Counter (Logos Biosystems; MC2, Aubière, France). The control was normalized to 100% including viable and dead cells. The results indicated on the histograms were expressed as the percentage of cells compared to the control. IC50 values were determined from the percentages of viable cells compared to the control.

[2] = test system: HCT116; experiment: MTT assay, antiproliferative effect on HCT116; assay type: cell-based; details: Homo sapiens
Protocol: as §1, §2

[3] = test system: DU145; experiment: MTT assay, antiproliferative effect on DU145; assay type: cell-based; details: Homo sapiens
Protocol: as §1, §2

[4] = test system: DU145; experiment: Trypan blue dye exclusion method on DU145; assay type: cell-based, human
Protocol: as §1, §2

[5] = test system: caspase-3 and PARP in DU145 cells; experiment: Western blot of apoptosis-related proteins in DU145; assay type: cell-based, human; details: DU145, 48 h;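 note: compared with untreated control cells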
Protocol: (§3) For total protein extraction, collected samples of each condition were washed in PBS. Then, the total cell pool was centrifuged at 200 g for 5 min at 4 °C and homogenized in RIPA lysis buffer (50 mM HEPES, pH 7.5, 150 mM NaCl, 1% sodium deoxycholate, 1% NP-40, 0.1% SDS, […] of aprotinin) containing protease inhibitors according to the manufacturer’s instructions. After quantification of protein levels using the Bradford method, proteins ([…]) were separated on 12.5% SDS-PAGE gels and transferred to PVDF membranes (GE Healthcare Life Science—Fisher Scientific). Membranes were probed with respective antibodies against human caspase-3, cleaved caspase-3, and PARP according to the manufacturer’s instructions. After incubation with appropriate secondary antibodies, blots were developed using the “ImmobilonWestern” substrate, following the manufacturer’s protocol, and G:BOX system (Syngene, Cambridge, UK). Membranes were then reblotted with human anti-β-actin used as a loading control.

[6] = test system: HT-29; experiment: MTT assay, antiproliferative effect on HT-29; assay type: cell-based, human; details: Homo sapiens
Protocol: as §1, §2

[7] = test system: HCT116; experiment: Trypan blue dye exclusion method on HCT116; assay type: cell-based, human
Protocol: as §1, §2

[8] = test system: caspase-3 and PARP in HT-29 cells; experiment: Western blot of apoptosis-related proteins in HT-29; assay type: cell-based, human; details: HT-29, 48 h;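 note: compared with untreated control cells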
Protocol: as §3

[9] = test system: human CRC (HCT116 and HT-29) and human PCa (DU145 and PC3) cell lines; experiment: MTT assay, summary statements over the cell lines; assay type: cell-based
Protocol: as §1, §2

[10] = test system: HT-29; experiment: Trypan blue dye exclusion method on HT-29; assay type: cell-based, human
Protocol: as §1, §2

[11] = test system: PC3; experiment: Trypan blue dye exclusion method on PC3; assay type: cell-based, human
Protocol: as §1, §2

[12] = test system: caspase-3 and PARP in HCT116 cells; experiment: Western blot of apoptosis-related proteins in HCT116; assay type: cell-based, human; details: HCT116, 48 h;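 note: compared with untreated control cells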
Protocol: as §3

- IC50 ([1]; PC-3, 24 h, read-out: IC50 PC3 24 h): 5.18 ± 0.39 µM
- IC50 ([1]; PC-3, 48 h, read-out: IC50 PC3 48 h): 5.13 ± 0.25 µM
- IC50 ([2]; HCT-116, 24 h, read-out: IC50 HCT116 24 h): 2.86 ± 0.2 µM
- IC50 ([2]; HCT-116, 48 h, read-out: IC50 HCT116 48 h): 2.59 ± 0.12 µM
- IC50 ([3]; DU-145, 24 h, read-out: IC50 DU145 24 h): 3.92 ± 0.24 µM
- IC50 ([3]; DU-145, 48 h, read-out: IC50 DU145 48 h): 3.31 ± 0.09 µM
- IC50 ([4]; Homo sapiens, DU-145, 48 h, from percentages of viable cells, read-out: IC50 Trypan Blue Test DU145): 3.98 µM
- IC50 ([6]; HT-29, 24 h, 24 h, read-out: IC50 HT-29 24 h): 3.88 ± 0.08 µM
- IC50 ([6]; HT-29, 48 h, 48 h, read-out: IC50 HT-29 48 h): 3.1 ± 0.17 µM
- IC50 ([7]; Homo sapiens, HCT-116, 48 h, from percentages of viable cells, read-out: IC50 Trypan Blue Test HCT116): 3.48 µM
- IC50 ([9]; Homo sapiens, 48 h, read-out: IC50 over the four cell lines): 2.6 to 5.1 µM
- IC50 ([10]; Homo sapiens, HT-29, 48 h, from percentages of viable cells, read-out: IC50 Trypan Blue Test HT-29): 4.05 µM
- IC50 ([11]; Homo sapiens, PC-3, 48 h, from percentages of viable cells, read-out: IC50 Trypan Blue Test PC3): 5.33 µM
SMILES: COc1cc(C(=O)/C=C/c2coc3ccc(C)cc3c2=O)cc(OC)c1OC [chalcone 13, (E)-6-methyl-3-(3-oxo-3-(3,4,5-trimethoxyphenyl)prop-1-en-1-yl)-4H-chromen-4-one]
- Dead cells ([4]; DU145, 48 h, 2.5 µM): 3.24%
- Dead cells ([4]; DU145, 48 h, 5 µM): 8.67%
- Dead cells ([4]; DU145, 48 h, 7.5 µM): 6.49%
- viability at 2.5 µM ([4]; Homo sapiens, DU-145, DU145, 48 h, 2.5 µM, read-out: Viable cells): 84.6%
- viability at 5 µM ([4]; Homo sapiens, DU-145, DU145, 48 h, 5 µM, read-out: Viable cells): 29.3%
- viability at 7.5 µM ([4]; Homo sapiens, DU-145, DU145, 48 h, 7.5 µM, read-out: Viable cells): 12.8%
- PARP cleavage (89 kDa fragment) [5]: clearly observed
- cleaved caspase-3 [5]: clearly observed
- native PARP expression [5]: strong decreased expression
- pro-caspase-3 expression [5]: decrease was less marked
- Dead cells ([7]; HCT116, 48 h, 2.5 µM): 5.46%
- Dead cells ([7]; HCT116, 48 h, 5 µM): 11.11%
- Dead cells ([7]; HCT116, 48 h, 7.5 µM): 10.46%
- viability at 2.5 µM ([7]; Homo sapiens, HCT-116, HCT116, 48 h, 2.5 µM, read-out: Viable cells): 74.1%
- viability at 5 µM ([7]; Homo sapiens, HCT-116, HCT116, 48 h, 5 µM, read-out: Viable cells): 19.6%
- viability at 7.5 µM ([7]; Homo sapiens, HCT-116, HCT116, 48 h, 7.5 µM, read-out: Viable cells): 10.1%
- PARP cleavage (89 kDa fragment) [8]: clearly observed
- cleaved caspase-3 [8]: clearly observed
- native PARP expression [8]: strong decreased expression
- pro-caspase-3 expression [8]: decreased
- viability at 10 µM ([9]; Homo sapiens, 48 h, from the concentration of 10 µM, whole cell lines): < 10%
- activity relative to chalcone 12 ([9]; comparison of IC50 values): four times more active
- Dead cells ([10]; HT-29, 48 h, 2.5 µM): 5.48%
- Dead cells ([10]; HT-29, 48 h, 7.5 µM): 9.04%
- viability at 2.5 µM ([10]; Homo sapiens, HT-29, 48 h, 2.5 µM, read-out: Viable cells): 72.2%
- viability at 5 µM ([10]; Homo sapiens, HT-29, 48 h, 5 µM, read-out: Viable cells): 37.6%
- viability at 7.5 µM ([10]; Homo sapiens, HT-29, 48 h, 7.5 µM, read-out: Viable cells): 18.5%
- viability at 2.5 µM ([11]; Homo sapiens, PC-3, PC3, 48 h, 2.5 µM, read-out: Viable cells): 92.8%
- viability at 5 µM ([11]; Homo sapiens, PC-3, PC3, 48 h, 5 µM, read-out: Viable cells): 54.3%
- viability at 7.5 µM ([11]; Homo sapiens, PC-3, PC3, 48 h, 7.5 µM, read-out: Viable cells): 15.4%
- Dead cells ([11]; PC3, 48 h, 2.5 µM): 9.51%
- Dead cells ([11]; PC3, 48 h, 5 µM): 6.14%
- Dead cells ([11]; PC3, 48 h, 7.5 µM): 4.23%
- cleaved caspase-3 [12]: clearly observed
- native PARP expression [12]: strong decreased expression
- pro-caspase-3 expression [12]: decreased
